According to US9096593B2, “Compounds and methods for kinase modulation, and indications therefor” (Plexxikon Inc., priority 2009, dated 2015):
pIC50: −log10 of the molar value. Where two headings read alike, the source gives them in different places.

Key:
CYP2C19 = CYP2C19 (Homo sapiens (Human), UniProt P33261); assay: CYP enzyme inhibition, fluorescent substrate; settings: for IC50: read-out: Cyp IC50 (μM) 2C19
Description: (§1) CYP (Cytochrome P450) enzymes are the major drug metabolizing enzymes present in the liver. The inhibition of CYP enzyme activity (IC50) for each of CYP1A2, CYP2C19, CYP2C9, CYP2D6, CYP3A4(BFC) and CYP3A4(BQ) is determined for compounds, where inhibition of metabolism of a known substrate leads to a decrease in the fluorescence of the metabolized product. The fluorescence of the product is monitored as a function of compound concentration.
(§2) Compounds are dissolved in DMSO to a concentration of 100 mM. These are diluted 1 μL into 82 μL of acetonitrile. An 11 μL aliquot of this solution is then added to 204 μL of cofactor mix (1.3% NADPH Regeneration system Solution A, 1.04% NADPH Regeneration system Solution B from BD Biosciences, 5% acetonitrile and 0.05% DMSO). These are then serially diluted 1:1 (160 μL to 160 μL co-factor mix) for a total of 10 points. A 10 μL aliquot of this final mixture is dispensed into 384 well assay plates and incubated for 10 minutes at 37° C. Enzyme and substrate mix (10 μL; […] CYP1A2/5 μM CEC; 1.0 μmol CYP2C9/75 μM MFC; […] CYP2C19/25 μM CEC; 1.5 μmol CYP2D6/1.5 μM AMMC; 1.0 μmol CYP3A4/50 μM BFC; or 1.0 μmol CYP3A4/40 μM BQ) is added to these assay plates. Assay plates are incubated at 37° C. (CYP1A2-15 min; CYP2C9-45 min; CYP2C19, 2D6 and 3A4-30 min) and read in a Tecan Safire 2 plate reader (CYP1A2, 2C19 and 3A4 409 ex/460 em; CYP2C9 and 2D6409 ex/530 em). The signal versus compound concentration is used to determine the IC50. The enzymes and substrates for this assay are obtained from BD Biosciences.

CYP1A2 = CYP1A2 (Homo sapiens (Human), UniProt P05177); assay: CYP enzyme inhibition, fluorescent substrate
Description: as §1, §2

CYP3A4(BQ) = CYP3A4(BQ) (Homo sapiens (Human), UniProt P08684); assay: CYP enzyme inhibition, fluorescent substrate; settings: for IC50: read-out: Cyp IC50 (μM) 3A4(BQ), BQ substrate
Description: as §1, §2

CYP2D6 = CYP2D6 (Homo sapiens (Human), UniProt P10635); assay: CYP enzyme inhibition, fluorescent substrate; settings: read-out: Cyp IC50 (μM) 2D6
Description: as §1, §2

CYP3A4(BFC) = CYP3A4(BFC) (Homo sapiens (Human), UniProt P08684); assay: CYP enzyme inhibition, fluorescent substrate; settings: for IC50: read-out: Cyp IC50 (μM) 3A4(BFC), BFC substrate
Description: as §1, §2

CYP2C9 = CYP2C9 (Homo sapiens (Human), UniProt P11712); assay: CYP enzyme inhibition, fluorescent substrate; settings: for IC50: read-out: Cyp IC50 (μM) 2C9
Description: as §1, §2

Flt-3 kinase = Flt-3 kinase (Homo sapiens (Human), UniProt P36888); assay: Flt-3 kinase biochemical activity assay (AlphaScreen, biotin-(E4Y)10 phosphorylation); settings: 100 μM ATP
Description: In one assay the biochemical activity IC50 values are determined with respect to inhibition of Flt-3 kinase activity, where inhibition of phosphorylation of a peptide substrate is measured as a function of compound concentration. Compounds to be tested, dissolved in DMSO (1 μL), are added to a white 384-well plate (Costar #3705). Working stocks of Flt-3 kinase (Invitrogen), biotin-(E4Y)10 substrate (Upstate Biotech, Cat#12-440), and ATP (Sigma, Cat#A-3377) are prepared in 25 mM Hepes pH 7.5, 5 mM MgCl2, 5 mM MnCl2, 1 mM DTT, and 0.01% Tween-20. All components are added to the 384-well plate for a final concentration of 1 ng/well Flt-3, 30 nM biotin-(E4Y)10 and 100 μM ATP in a volume of 20 μL. Each sample is at 5% DMSO. The plate is then incubated for 1 hour at room temperature. Just before use, working stocks of donor and acceptor beads from the AlphaScreen PY20 Detection Kit (PerkinElmer, Cat#676601M) are prepared in 25 mM Hepes pH 7.5, pH 7.4, 100 mM EDTA. 0.3% BSA. To stop the reaction, the plate is uncovered in the dark and 5 μL of Donor Beads solution (Streptavidin beads) is added to each well. The plate is incubated at room temperature for 20 minutes. Five microliters of Acceptor Beads solution (PY20 coated beads) are then added to each well. The final concentration of each bead is 10 μg/mL. The plates are incubated at room temperature for 60 minutes. Fluorescence signal is recorded on the Envision reader. Phosphorylated substrate results in binding of the PY20 antibody and association of the donor and acceptor beads such that signal correlates with kinase activity. The signal vs. compound concentration is used to determine the IC50.

[1] = human, CYP2C9 enzyme (BD Biosciences), 45 min

Chain of Flt-3 kinase (P36888 27-993): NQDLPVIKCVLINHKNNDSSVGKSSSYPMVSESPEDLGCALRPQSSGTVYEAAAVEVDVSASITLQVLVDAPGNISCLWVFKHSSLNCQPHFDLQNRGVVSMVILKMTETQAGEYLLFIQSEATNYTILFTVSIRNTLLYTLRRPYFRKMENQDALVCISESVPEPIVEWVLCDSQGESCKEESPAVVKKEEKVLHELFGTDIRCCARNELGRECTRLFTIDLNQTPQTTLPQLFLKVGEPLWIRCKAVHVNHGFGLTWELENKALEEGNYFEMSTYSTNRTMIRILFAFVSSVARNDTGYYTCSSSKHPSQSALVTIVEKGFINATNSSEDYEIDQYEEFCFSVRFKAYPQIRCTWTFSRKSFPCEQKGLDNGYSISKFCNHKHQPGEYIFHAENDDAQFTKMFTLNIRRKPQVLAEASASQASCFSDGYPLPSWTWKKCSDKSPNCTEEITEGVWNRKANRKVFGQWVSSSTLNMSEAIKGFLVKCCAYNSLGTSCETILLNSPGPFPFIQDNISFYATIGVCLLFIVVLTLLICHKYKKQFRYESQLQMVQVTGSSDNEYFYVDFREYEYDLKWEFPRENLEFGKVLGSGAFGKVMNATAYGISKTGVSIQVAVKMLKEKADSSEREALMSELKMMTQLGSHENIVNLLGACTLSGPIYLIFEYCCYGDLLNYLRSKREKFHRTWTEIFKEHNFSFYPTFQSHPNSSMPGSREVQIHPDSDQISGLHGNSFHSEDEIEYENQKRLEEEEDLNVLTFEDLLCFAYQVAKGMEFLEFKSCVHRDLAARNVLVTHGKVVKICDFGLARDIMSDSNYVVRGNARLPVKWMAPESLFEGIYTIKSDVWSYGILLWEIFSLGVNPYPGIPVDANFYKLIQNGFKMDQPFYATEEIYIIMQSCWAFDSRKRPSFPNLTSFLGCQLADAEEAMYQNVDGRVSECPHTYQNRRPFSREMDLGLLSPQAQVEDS
Chain of CYP2C9 (P11712 whole entry): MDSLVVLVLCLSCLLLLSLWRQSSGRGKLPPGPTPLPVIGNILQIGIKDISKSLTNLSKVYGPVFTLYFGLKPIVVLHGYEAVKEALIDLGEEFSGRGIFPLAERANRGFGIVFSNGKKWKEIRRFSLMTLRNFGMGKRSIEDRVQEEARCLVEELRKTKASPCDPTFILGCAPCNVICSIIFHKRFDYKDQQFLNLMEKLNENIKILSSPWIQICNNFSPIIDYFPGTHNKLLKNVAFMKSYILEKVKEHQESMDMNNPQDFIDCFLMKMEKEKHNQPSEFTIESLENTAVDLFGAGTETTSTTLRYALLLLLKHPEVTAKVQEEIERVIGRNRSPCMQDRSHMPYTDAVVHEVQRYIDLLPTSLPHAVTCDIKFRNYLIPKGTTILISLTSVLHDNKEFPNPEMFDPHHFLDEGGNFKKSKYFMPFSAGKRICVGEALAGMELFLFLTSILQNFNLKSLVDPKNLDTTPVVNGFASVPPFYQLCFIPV
Chain of CYP3A4(BQ) (P08684 whole entry): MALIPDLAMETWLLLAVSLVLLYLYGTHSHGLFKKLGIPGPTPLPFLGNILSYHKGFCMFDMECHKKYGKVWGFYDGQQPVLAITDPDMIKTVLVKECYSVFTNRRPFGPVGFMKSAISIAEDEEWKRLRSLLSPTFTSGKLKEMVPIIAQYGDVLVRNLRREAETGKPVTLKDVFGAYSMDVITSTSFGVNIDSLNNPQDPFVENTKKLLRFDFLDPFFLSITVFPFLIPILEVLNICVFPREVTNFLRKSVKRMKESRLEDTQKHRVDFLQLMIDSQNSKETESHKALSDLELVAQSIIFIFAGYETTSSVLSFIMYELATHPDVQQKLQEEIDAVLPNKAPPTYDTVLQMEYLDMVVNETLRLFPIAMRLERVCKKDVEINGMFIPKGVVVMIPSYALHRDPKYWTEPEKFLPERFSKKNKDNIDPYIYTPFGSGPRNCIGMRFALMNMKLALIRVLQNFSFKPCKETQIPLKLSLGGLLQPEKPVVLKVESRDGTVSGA
Chain of CYP3A4(BFC) (P08684 whole entry): as above
Chain of CYP2D6 (P10635 whole entry): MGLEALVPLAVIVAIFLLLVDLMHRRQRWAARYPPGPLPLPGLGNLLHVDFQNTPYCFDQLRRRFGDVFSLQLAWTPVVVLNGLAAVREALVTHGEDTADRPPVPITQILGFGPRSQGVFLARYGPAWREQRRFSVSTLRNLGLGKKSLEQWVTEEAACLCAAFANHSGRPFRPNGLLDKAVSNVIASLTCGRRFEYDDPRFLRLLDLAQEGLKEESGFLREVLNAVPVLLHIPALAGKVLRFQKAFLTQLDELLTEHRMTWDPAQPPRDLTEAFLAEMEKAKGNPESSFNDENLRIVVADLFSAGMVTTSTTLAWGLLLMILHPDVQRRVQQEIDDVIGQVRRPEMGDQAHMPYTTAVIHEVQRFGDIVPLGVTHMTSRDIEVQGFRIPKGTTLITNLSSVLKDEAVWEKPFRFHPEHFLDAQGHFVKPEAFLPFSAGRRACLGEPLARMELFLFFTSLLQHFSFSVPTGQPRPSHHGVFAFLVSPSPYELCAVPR
Chain of CYP1A2 (P05177 whole entry): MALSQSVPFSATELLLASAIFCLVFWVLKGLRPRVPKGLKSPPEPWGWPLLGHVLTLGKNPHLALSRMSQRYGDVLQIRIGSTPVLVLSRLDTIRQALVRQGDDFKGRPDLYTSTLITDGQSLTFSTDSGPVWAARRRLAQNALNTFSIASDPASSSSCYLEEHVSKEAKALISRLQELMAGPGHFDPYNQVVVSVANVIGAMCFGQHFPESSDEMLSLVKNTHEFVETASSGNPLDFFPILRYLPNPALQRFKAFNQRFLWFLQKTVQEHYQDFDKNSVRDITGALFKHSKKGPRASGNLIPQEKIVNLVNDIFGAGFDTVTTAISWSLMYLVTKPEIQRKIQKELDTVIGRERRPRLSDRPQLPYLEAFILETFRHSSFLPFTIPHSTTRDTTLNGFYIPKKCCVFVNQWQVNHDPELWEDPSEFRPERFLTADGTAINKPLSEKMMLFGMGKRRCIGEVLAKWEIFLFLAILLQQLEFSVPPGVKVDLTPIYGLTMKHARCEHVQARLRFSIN
Chain of CYP2C19 (P33261 whole entry): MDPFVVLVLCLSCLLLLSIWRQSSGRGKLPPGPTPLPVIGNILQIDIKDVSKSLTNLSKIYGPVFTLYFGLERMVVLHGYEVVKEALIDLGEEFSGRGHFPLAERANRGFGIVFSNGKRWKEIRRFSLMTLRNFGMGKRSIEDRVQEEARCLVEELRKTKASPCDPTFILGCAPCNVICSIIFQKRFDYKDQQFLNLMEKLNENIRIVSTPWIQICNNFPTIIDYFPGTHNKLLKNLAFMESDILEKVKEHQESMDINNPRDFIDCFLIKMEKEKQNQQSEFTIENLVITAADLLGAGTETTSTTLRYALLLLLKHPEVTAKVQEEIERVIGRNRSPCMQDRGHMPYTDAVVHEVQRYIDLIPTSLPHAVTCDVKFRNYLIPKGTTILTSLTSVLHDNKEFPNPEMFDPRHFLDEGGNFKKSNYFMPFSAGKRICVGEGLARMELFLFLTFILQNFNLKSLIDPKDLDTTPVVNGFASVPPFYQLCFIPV

SMILES	IC50 (CYP2C19) [µM]	pIC50 (CYP1A2)	IC50 (CYP3A4(BQ)) [µM]	IC50 (CYP2D6) [µM]	IC50 (CYP3A4(BFC)) [µM]	IC50 (CYP2C9) [µM]	IC50 (Flt-3 kinase) [µM]	pIC50 (CYP1A2; human, 15 min)	pIC50 (CYP3A4(BQ))	pIC50 (CYP3A4(BFC))	pIC50 (CYP2C9; [1])	pIC50 (CYP2C9)	pIC50 (CYP2C19)	IC50 (CYP1A2; read-out: Cyp IC50 (μM) 1A2) [µM]
Clc1cnc2[nH]cc(Cc3ccc(NCc4ccc(Cl)nc4)nc3)c2c1 [Compound P-2003]	5 to 10	< 5.00	> 10	> 10	5 to 10	< 5	< 0.1	–	–	–	–	–	–	–
Cc1cnc2[nH]cc(Cc3ccc(NCc4ccc(C(F)(F)F)nc4)nc3F)c2c1 [Compound P-2031, [6-Fluoro-5-(5-methyl-1H-pyrrolo[2,3-b]pyridin-3-ylmethyl)-pyridin-2-yl]-(6-trifluoromethyl-pyridin-3-ylmethyl)-amine]	–	–	–	> 10	–	–	< 0.1	< 5.00	5.00 to 5.30	5.00 to 5.30	> 5.30	–	–	–
COc1cnc2[nH]cc(Cc3ccc(NCc4ccc(Cl)cc4)nc3F)c2c1 [Compound P-2032, (4-Chloro-benzyl)-[6-fluoro-5-(5-methoxy-1H-pyrrolo[2,3-b]pyridin-3-ylmethyl)-pyridin-2-yl]-amine]	–	5.00 to 5.30	> 10	> 10	> 10	–	< 0.1	–	–	–	> 5.30	–	–	–
COc1cnc2[nH]cc(Cc3ccc(NCc4ccccc4Cl)nc3F)c2c1 [Compound P-2034, (2-chloro-benzyl)-[6-fluoro-5-(5-methoxy-1H-pyrrolo[2,3-b]pyridin-3-ylmethyl)-pyridin-2-yl]-amine]	–	–	–	–	–	–	< 0.1	–	–	–	–	–	–	–
COc1ccc(CNc2ncc(Cc3c[nH]c4ncc(Cl)cc34)cn2)cn1 [Compound P-2038, [5-(5-Chloro-1H-pyrrolo[2,3-b]pyridin-3-ylmethyl)-pyrimidin-2-yl]-(6-methoxy-pyridin-3-ylmethyl)-amine]	> 10	–	> 10	–	> 10	–	< 0.1	< 5.00	–	–	–	5.00 to 5.30	–	–
Fc1nc(NCc2ccc(Cl)cn2)ccc1Cc1c[nH]c2ncccc12 [Compound P-2044, (5-Chloro-pyridin-2-ylmethyl)-[6-fluoro-5-(1H-pyrrolo[2,3-b]pyridin-3-ylmethyl)-pyridin-2-yl]-amine]	–	–	–	–	–	–	> 0.1	–	–	–	–	–	–	–
COc1ncc(CNc2ncc(Cc3c[nH]c4ncc(C)cc34)cn2)cc1F [Compound P-2073, (5-Fluoro-6-methoxy-pyridin-3-ylmethyl)-[5-(5-methyl-1H-pyrrolo[2,3-b]pyridin-3-ylmethyl)-pyrimidin-2-yl]-amine]	> 10	–	> 10	> 10	–	< 5	–	< 5.00	–	5.00 to 5.30	–	–	–	–
Cc1cc(CNc2ccc(Cc3c[nH]c4ncc(Cl)cc34)c(F)n2)ccn1 [Compound P-2075, [5-(5-Chloro-1H-pyrrolo[2,3-b]pyridin-3-ylmethyl)-6-fluoro-pyridin-2-yl]-(2-methyl-pyridin-4-ylmethyl)-amine]	< 5	5.00 to 5.30	–	> 10	< 5	< 5	–	–	5.00 to 5.30	–	–	–	–	–
Cc1cnc2[nH]cc(Cc3cnc(NCc4cccc(C)n4)nc3)c2c1 [Compound P-2079, (6-Methyl-pyridin-2-ylmethyl)-[5-(5-methyl-1H-pyrrolo[2,3-b]pyridin-3-ylmethyl)-pyrimidin-2-yl]-amine]	–	–	–	> 10	< 5	–	–	< 5.00	5.00 to 5.30	–	–	5.00 to 5.30	5.00 to 5.30	–
Cc1cnc2[nH]cc(Cc3cnc(NCc4cccc(N5CCOCC5)n4)nc3)c2c1 [Compound P-2081, [5-(5-Methyl-1H-pyrrolo[2,3-b]pyridin-3-ylmethyl)-pyrimidin-2-yl]-(6-morpholin-4-yl-pyridin-2-ylmethyl)-amine]	< 5	–	–	> 10	< 5	< 5	–	< 5.00	5.00 to 5.30	–	–	–	–	–
Cc1cnc2[nH]cc(Cc3cnc(NCc4cccc(N5CCCC5)n4)nc3)c2c1 [Compound P-2082, [5-(5-Methyl-1H-pyrrolo[2,3-b]pyridin-3-ylmethyl)-pyrimidin-2-yl]-(6-pyrrolidin-1-yl-pyridin-2-ylmethyl)-amine]	< 5	–	< 5	> 10	< 5	< 5	–	< 5.00	–	–	–	–	–	–
Cc1cnc2[nH]cc(Cc3ccc(NCc4ccc(Cl)nc4)nc3F)c2c1 [Compound P-2088, (6-Chloro-pyridin-3-ylmethyl)-[6-fluoro-5-(5-methyl-1H-pyrrolo[2,3-b]pyridin-3-ylmethyl)-pyridin-2-yl]-amine]	< 5	–	–	> 10	–	< 5	–	–	5.00 to 5.30	5.00 to 5.30	–	–	–	> 10
Cc1cnc2[nH]cc(Cc3ccc(NCc4cccnc4F)nc3F)c2c1 [Compound P-2103, [6-Fluoro-5-(5-methyl-1H-pyrrolo[2,3-b]pyridin-3-ylmethyl)-pyridin-2-yl]-(2-fluoro-pyridin-3-ylmethyl)-amine]	< 5	–	–	> 10	–	< 5	–	< 5.00	5.00 to 5.30	5.00 to 5.30	–	–	–	–
Cc1cnc2[nH]cc(Cc3ccc(NCc4ccnc(F)c4)nc3F)c2c1 [Compound P-2118, [6-Fluoro-5-(5-methyl-1H-pyrrolo[2,3-b]pyridin-3-ylmethyl)-pyridin-2-yl]-(2-fluoro-pyridin-4-ylmethyl)-amine]	< 5	–	> 10	> 10	–	–	–	< 5.00	–	5.00 to 5.30	–	5.00 to 5.30	–	–
COc1ncccc1CNc1ncc(Cc2c[nH]c3ncc(C)cc23)cn1 [Compound P-2139, (2-Methoxy-pyridin-3-ylmethyl)-[5-(5-methyl-1H-pyrrolo[2,3-b]pyridin-3-ylmethyl)-pyrimidin-2-yl]-amine]	> 10	–	> 10	> 10	–	–	–	< 5.00	–	5.00 to 5.30	–	5.00 to 5.30	–	–
Cc1cnc2[nH]cc(Cc3cnc(NCc4ccc(C(F)(F)F)nc4)c(F)c3)c2c1 [Compound P-2146, [3-Fluoro-5-(5-methyl-1H-pyrrolo[2,3-b]pyridin-3-ylmethyl)-pyridin-2-yl]-(6-trifluoromethyl-pyridin-3-ylmethyl)-amine]	< 5	–	> 10	> 10	> 10	–	–	< 5.00	–	–	–	5.00 to 5.30	–	–
COc1cnc2[nH]cc(Cc3cnc(NCc4ccc(C(F)(F)F)nc4)c(F)c3)c2c1 [Compound P-2147, [3-Fluoro-5-(5-methoxy-1H-pyrrolo[2,3-b]pyridin-3-ylmethyl)-pyridin-2-yl]-(6-trifluoromethyl-pyridin-3-ylmethyl)-amine]	< 5	–	–	> 10	–	> 10	–	< 5.00	5.00 to 5.30	5.00 to 5.30	–	–	–	–
